Assay results: PMC6211257, “Synthesis and cytotoxic activities of novel copper and silver complexes of 1,3-diaryltriazene-substituted sulfonamides” (Journal of Enzyme Inhibition and Medicinal Chemistry, 2018)
“And” between values parts separate entries of the source, which are not always exact repeats. Equal entries are not always repeated.

tested on: normal prostate epithelium (PNT-1A) cells; assay: MTT cytotoxicity assay, PNT-1A; assay type: cell-based, human; settings: Homo sapiens, PNT1A, normal cell, 48 h, means of three independent experiments, read-out: IC50 PNT-1A
Excerpt: (§1) The cells studied were obtained from the American Type Culture Collection (ATCC, Manassas, VA), and included human colorectal adenocarcinoma (DLD-1), cervix carcinoma (HeLa), breast adenocarcinoma (MDA-MB-231), colon adenocarcinoma (HT-29), endometrial adenocarcinoma (ECC-1), prostate cancer (DU-145 and PC-3), normal embryonic kidney (HEK-293), normal prostate epithelium (PNT-1A), and normal retinal pigment epithelium (ARPE-19) cells. As recommended by ATCC, cells were subjected to propagation using DMEM-F12 and RPMI-1640 media, with supplements 10% fetal bovine serum, L-glutamine (2 mM), penicillin (100 U/mL) and streptomycin ([…]) in a humidified atmosphere (5% CO2) at 37 °C. When the cultures reached 70–80% confluence, the cells were harvested using 0.25% trypsin (Sigma).
(§2) Cytotoxic activities were based on the reduction of (3–(4,5-dimethylthiazol-2-yl)-2,5-diphenyltetrazolium bromide) (MTT) by mitochondrial dehydrogenase of viable cells to give a blue formazan product which can be measured spectrophotometrically by UV–Vis measurements. MTT colorimetric assays were performed using 96 well plates. The cells were seeded in a 96 well plate at concentration 5.0 × 10^4 cells/well and incubated at 37 °C for 24 h. After treatment with various concentrations of the test compound (1, 5, 10, 25, 50, 100 and 200 μM), the cells were incubated for an additional 48 h at 37 °C. After incubation, the medium was removed, and the cells in each well were incubated with 100 μL MTT solution (5 mg/mL) for 4 h at 37 °C. MTT solutions were then discarded, and 100 μL DMSO were added to dissolve insoluble formazan crystals. Optical densities were measured at 570 nm (Varioskan Flash Multimode Reader, Thermo, Waltham, MA). Data were obtained from triplicate wells. Cytotoxic effects were determined in reference to negative controls (vehicle treated cells). Cytotoxicity was expressed as the mean percentage increase relative to the unexposed control (mean ± SD). All statistical analyses were performed using SPSS package program for Windows (Version 20, Chicago, IL). Control values were set to 0% cytotoxicity. Cytotoxicity data, where appropriate, were fitted to sigmoidal curves and a four-parameter logistic model was used to calculate the IC50 values, the concentration of material causing 50% inhibition, compared to the untreated controls. 5-Fluorouracil (5-FU) was also used as a control agent[21]^,[22].

Row | Structure (SMILES) | IC50 [µM]
1 | O=c1[nH]cc(F)c(=O)[nH]1 [Compound 5-FU, 5-Fluorouracil, reference compound] | 142 ± 18.6
2 | COc1ccc(/N=N/Nc2cccc(S(N)(=O)=O)c2)cc1OC [Compound L4, 3–(3-(3,4-dimethoxyphenyl)triaz-1-en-1-yl) benzenesulfonamide] | 237 ± 26.8

same assay, conditions: normal cell, 48 h, means of three independent experiments, read-out: IC50 PNT-1A

Row | Structure (SMILES) | IC50 [µM]
3 | CC(=O)[O][Ag][N](N=Nc1ccc(C(=O)O)cc1)c1cccc(S(N)(=O)=O)c1 [Compound L3-Ag] | 9.2 ± 0.9
4 | CC(=O)[O][Ag][N](N=Nc1cc(C)cc(C)c1)c1cccc(S(N)(=O)=O)c1 [Compound L5-Ag] | 111 ± 11

tested on: colon adenocarcinoma (HT-29) cells; assay: MTT cytotoxicity assay, HT-29; assay type: cell-based, human; settings: Homo sapiens, HT-29, cancer cell, 48 h, means of three independent experiments
Excerpt: as §1, §2

Row | Structure (SMILES) | IC50 [µM]
5 | O=c1[nH]cc(F)c(=O)[nH]1 [Compound 5-FU, 5-Fluorouracil, reference compound] | 24.2 ± 2.4
6 | COc1ccc(/N=N/Nc2cccc(S(N)(=O)=O)c2)cc1OC [Compound L4, 3–(3-(3,4-dimethoxyphenyl)triaz-1-en-1-yl) benzenesulfonamide] | > 300

same assay, conditions: cancer cell, 48 h, means of three independent experiments

Row | Structure (SMILES) | IC50 [µM]
7 | CC(=O)[O][Ag][N](N=Nc1ccc(C(=O)O)cc1)c1cccc(S(N)(=O)=O)c1 [Compound L3-Ag] | 10.1 ± 3.1
8 | CC(=O)[O][Ag][N](N=Nc1cc(C)cc(C)c1)c1cccc(S(N)(=O)=O)c1 [Compound L5-Ag] | 162 ± 16.1

tested on: prostate cancer (DU-145) cells; assay: MTT cytotoxicity assay, DU-145; assay type: cell-based, human; settings: Homo sapiens, DU-145; cancer cell, MTT, 48 h, means of three independent experiments; read-out: IC50 DU-145
Excerpt: as §1, §2

Row | Structure (SMILES) | IC50 [µM]
9 | O=c1[nH]cc(F)c(=O)[nH]1 [Compound 5-FU, 5-Fluorouracil, reference compound] | 37.3 ± 5.8
10 | COc1ccc(/N=N/Nc2cccc(S(N)(=O)=O)c2)cc1OC [Compound L4, 3–(3-(3,4-dimethoxyphenyl)triaz-1-en-1-yl) benzenesulfonamide] | 182 ± 23.4

same assay, conditions: cancer cell, MTT, 48 h, means of three independent experiments; read-out: IC50 DU-145

Row | Structure (SMILES) | IC50 [µM]
11 | CC(=O)[O][Ag][N](N=Nc1ccc(C(=O)O)cc1)c1cccc(S(N)(=O)=O)c1 [Compound L3-Ag] | 4.8 ± 0.4
12 | CC(=O)[O][Ag][N](N=Nc1cc(C)cc(C)c1)c1cccc(S(N)(=O)=O)c1 [Compound L5-Ag] | 100 ± 10.1

tested on: endometrial adenocarcinoma (ECC-1) cells; assay: MTT cytotoxicity assay, ECC-1; assay type: cell-based, human; settings: Homo sapiens, ECC-1, cancer cell, 48 h, means of three independent experiments
Excerpt: as §1, §2

Row | Structure (SMILES) | IC50 [µM]
13 | O=c1[nH]cc(F)c(=O)[nH]1 [Compound 5-FU, 5-Fluorouracil, reference compound] | 30.6 ± 3.5
14 | COc1ccc(/N=N/Nc2cccc(S(N)(=O)=O)c2)cc1OC [Compound L4, 3–(3-(3,4-dimethoxyphenyl)triaz-1-en-1-yl) benzenesulfonamide] | > 300

same assay, conditions: cancer cell, 48 h, means of three independent experiments

Row | Structure (SMILES) | IC50 [µM]
15 | CC(=O)[O][Ag][N](N=Nc1ccc(C(=O)O)cc1)c1cccc(S(N)(=O)=O)c1 [Compound L3-Ag] | 16.2 ± 1.6
16 | CC(=O)[O][Ag][N](N=Nc1cc(C)cc(C)c1)c1cccc(S(N)(=O)=O)c1 [Compound L5-Ag] | 136 ± 13.5

tested on: human colorectal adenocarcinoma (DLD-1) cells; assay: MTT cytotoxicity assay, DLD-1; assay type: cell-based; settings: Homo sapiens, DLD-1, cancer cell, 48 h, means of three independent experiments
Excerpt: as §1, §2

Row | Structure (SMILES) | IC50 [µM]
17 | O=c1[nH]cc(F)c(=O)[nH]1 [Compound 5-FU, 5-Fluorouracil, reference compound] | 50.2 ± 21
18 | COc1ccc(/N=N/Nc2cccc(S(N)(=O)=O)c2)cc1OC [Compound L4, 3–(3-(3,4-dimethoxyphenyl)triaz-1-en-1-yl) benzenesulfonamide] | > 300

same assay, conditions: cancer cell, 48 h, means of three independent experiments

Row | Structure (SMILES) | IC50 [µM]
19 | CC(=O)[O][Ag][N](N=Nc1ccc(C(=O)O)cc1)c1cccc(S(N)(=O)=O)c1 [Compound L3-Ag] | 3.3 ± 0.3
20 | CC(=O)[O][Ag][N](N=Nc1cc(C)cc(C)c1)c1cccc(S(N)(=O)=O)c1 [Compound L5-Ag] | 111 ± 9

tested on: prostate cancer (PC-3) cells; assay: MTT cytotoxicity assay, PC-3; assay type: cell-based, human; settings: Homo sapiens, PC-3, cancer cell, 48 h, means of three independent experiments
Excerpt: as §1, §2

Row | Structure (SMILES) | IC50 [µM]
21 | O=c1[nH]cc(F)c(=O)[nH]1 [Compound 5-FU, 5-Fluorouracil, reference compound] | 45.5 ± 4.5
22 | COc1ccc(/N=N/Nc2cccc(S(N)(=O)=O)c2)cc1OC [Compound L4, 3–(3-(3,4-dimethoxyphenyl)triaz-1-en-1-yl) benzenesulfonamide] | 299 ± 32.3

same assay, conditions: cancer cell, 48 h, means of three independent experiments

Row | Structure (SMILES) | IC50 [µM]
23 | CC(=O)[O][Ag][N](N=Nc1ccc(C(=O)O)cc1)c1cccc(S(N)(=O)=O)c1 [Compound L3-Ag] | 5.1 ± 0.5
24 | CC(=O)[O][Ag][N](N=Nc1cc(C)cc(C)c1)c1cccc(S(N)(=O)=O)c1 [Compound L5-Ag] | 112 ± 13.4

tested on: normal embryonic kidney (HEK-293) cells; assay: MTT cytotoxicity assay, HEK-293; assay type: cell-based, human; settings: Homo sapiens, HEK293, normal cell, 48 h, means of three independent experiments
Excerpt: as §1, §2

Row | Structure (SMILES) | IC50 [µM]
25 | O=c1[nH]cc(F)c(=O)[nH]1 [Compound 5-FU, 5-Fluorouracil, reference compound] | 65.3 ± 8.6
26 | COc1ccc(/N=N/Nc2cccc(S(N)(=O)=O)c2)cc1OC [Compound L4, 3–(3-(3,4-dimethoxyphenyl)triaz-1-en-1-yl) benzenesulfonamide] | > 300

same assay, conditions: normal cell, 48 h, means of three independent experiments

Row | Structure (SMILES) | IC50 [µM]
27 | CC(=O)[O][Ag][N](N=Nc1ccc(C(=O)O)cc1)c1cccc(S(N)(=O)=O)c1 [Compound L3-Ag] | 9.9 ± 0.9
28 | CC(=O)[O][Ag][N](N=Nc1cc(C)cc(C)c1)c1cccc(S(N)(=O)=O)c1 [Compound L5-Ag] | 30.5 ± 4.5

tested on: cervix carcinoma (HeLa) cells; assay: MTT cytotoxicity assay, HeLa; assay type: cell-based, human; settings: Homo sapiens, HeLa, 48 h, cancer cell, MTT, means of three independent experiments
Excerpt: as §1, §2

Row | Structure (SMILES) | IC50 [µM]
29 | O=c1[nH]cc(F)c(=O)[nH]1 [Compound 5-FU, 5-Fluorouracil, reference compound] | 19.2
30 | COc1ccc(/N=N/Nc2cccc(S(N)(=O)=O)c2)cc1OC [Compound L4, 3–(3-(3,4-dimethoxyphenyl)triaz-1-en-1-yl) benzenesulfonamide] | > 300

same assay, conditions: cancer cell, MTT, 48 h, means of three independent experiments

Row | Structure (SMILES) | IC50
31 | CC(=O)[O][Ag][N](N=Nc1ccc(C(=O)O)cc1)c1cccc(S(N)(=O)=O)c1 [Compound L3-Ag] | 3.4 ± 0.2 µM
32 | CC(=O)[O][Ag][N](N=Nc1cc(C)cc(C)c1)c1cccc(S(N)(=O)=O)c1 [Compound L5-Ag] | 9.61 µM and 9.6 µM
33 | O=c1[nH]cc(F)c(=O)[nH]1 [Compound 5-FU, 5-Fluorouracil, reference compound] | 19.2 ± 1.2 µM

tested on: breast adenocarcinoma (MDA-MB-231) cells; assay: MTT cytotoxicity assay, MDA-MB-231; assay type: cell-based, human; settings: Homo sapiens, MDA-MB-231, cancer cell, 48 h, means of three independent experiments
Excerpt: as §1, §2

Row | Structure (SMILES) | IC50 [µM]
34 | O=c1[nH]cc(F)c(=O)[nH]1 [Compound 5-FU, 5-Fluorouracil, reference compound] | 22.4 ± 2.5
35 | COc1ccc(/N=N/Nc2cccc(S(N)(=O)=O)c2)cc1OC [Compound L4, 3–(3-(3,4-dimethoxyphenyl)triaz-1-en-1-yl) benzenesulfonamide] | 155 ± 2.6

same assay, conditions: cancer cell, 48 h, means of three independent experiments

Row | Structure (SMILES) | IC50 [µM]
36 | CC(=O)[O][Ag][N](N=Nc1ccc(C(=O)O)cc1)c1cccc(S(N)(=O)=O)c1 [Compound L3-Ag] | 9.8 ± 0.9
37 | CC(=O)[O][Ag][N](N=Nc1cc(C)cc(C)c1)c1cccc(S(N)(=O)=O)c1 [Compound L5-Ag] | 148 ± 19.5

tested on: normal retinal pigment epithelium (ARPE-19) cells; assay: MTT cytotoxicity assay, ARPE-19; assay type: cell-based, human; settings: Homo sapiens, ARPE-19, normal cell, 48 h, means of three independent experiments
Excerpt: as §1, §2

Row | Structure (SMILES) | IC50 [µM]
38 | O=c1[nH]cc(F)c(=O)[nH]1 [Compound 5-FU, 5-Fluorouracil, reference compound] | 75.3 ± 7.5
39 | COc1ccc(/N=N/Nc2cccc(S(N)(=O)=O)c2)cc1OC [Compound L4, 3–(3-(3,4-dimethoxyphenyl)triaz-1-en-1-yl) benzenesulfonamide] | > 300

same assay, conditions: normal cell, 48 h, means of three independent experiments

Row | Structure (SMILES) | IC50 [µM]
40 | CC(=O)[O][Ag][N](N=Nc1ccc(C(=O)O)cc1)c1cccc(S(N)(=O)=O)c1 [Compound L3-Ag] | 9.5 ± 0.9
41 | CC(=O)[O][Ag][N](N=Nc1cc(C)cc(C)c1)c1cccc(S(N)(=O)=O)c1 [Compound L5-Ag] | 109 ± 11
